Read-outs that look alike come from different tables or passages of the source.
Assays:
[1] = tested on: monocyte differentiation into immature DCs; assay: IL-4/GM-CSF-mediated monocyte differentiation to immature dendritic cells (flow cytometry); type: cell-based; conditions: Homo sapiens, 120 h, purified monocytes, CD1a expression after five days
Description: Dendritic cells (DCs) are important antigen presenting cells that play an integral role in mediating inflammatory skin diseases. A subset of DCs are derived from monocytes and this differentiation is driven by IL-4/GM-CSF co-stimulation. The ability of DMVT-502 to disrupt the signaling responsible for monocyte differentiation into immature DCs was assessed by flow cytometry. […] Five days later, cells were stained for CD14 (monocyte marker) and CD1a (immature dendritic cell marker) and assessed for immature DC differentiation.

JAK2 = JAK2 (Homo sapiens, UniProt O60674); assay: cell-based
[2] = tested on: JAK1/JAK3-dependent signaling pathways; assay: Cytokine-mediated STAT phosphorylation in peripheral blood mononuclear cells (phospho-flow cytometry); type: cell-based; conditions: Homo sapiens; PBMC; T cells and monocytes
[3] = tested on: DNCB-induced atopic dermatitis; assay: DNCB-induced atopic dermatitis in the NC/Nga mouse model; type: in vivo
Description: Atopic dermatitis was induced by repeated application of DNCB (1-chloro-2,4-dinitrobenzene) to the dorsal skin of the ears/back. […] Lesions were evaluated on days 2, 8, 11, and 14.
Macroscopic lesion severity scores are depicted in FIG. 7. Macroscopic skin lesion severity was measured on the indicated Study Days by assessing (0-3 scale) the presence of erythema, edema, excoriation/erosion, and dryness scaling on the ears, neck, and dorsal skin of animals.
Serum IgE levels are depicted in FIG. 8. Serum samples obtained on Study Day 15 were utilized for IgE quantitation. Select cytokine data from the study are depicted in FIG. 9. Skin samples harvested on Day 15 were analyzed by LUMINEX for inflammatory cytokine levels for IL-4, IL-5, IL-13, and IL-31.

[4] = tested on: GM-CSF (JAK2-mediated) STAT5 Y694 phosphorylation; assay: GM-CSF stimulated STAT5 Y694 phosphorylation in human whole blood; type: cell-based; conditions: Monocyte, monocytes, read-out: IC50, GM-CSF induced STAT5 Y694 phosphorylation
[5] = tested on: IL-4-mediated upregulation of CD23 and CD25 on monocytes; assay: IL-4-mediated upregulation of cell surface markers CD23 and CD25 on monocytes; type: cell-based; conditions: Homo sapiens, Monocyte
Syk = target: T1, Syk (Homo sapiens, UniProt P43405); assay: DiscoveRx cellular platform, Syk; type: cell-based
T1 construct: DiscoveRx

[6] = tested on: IL-4 (JAK1/3-mediated) STAT6 Y641 phosphorylation; assay: IL-4 stimulated STAT6 Y641 phosphorylation in human whole blood; type: cell-based
From the text: (§1) To evaluate downstream signaling following cytokine stimulation, human whole blood was stimulated with IL-2 (JAK1/3-mediated signaling), which results in phosphorylation of STAT5 at tyrosine residue 694 (Y694). […] IL-6 (JAK1/2/Tyk2) stimulation leads to STAT3 Y705 phosphorylation in monocytes.

[7] = tested on: IL-6 (JAK1/2/Tyk2) STAT3 Y705 phosphorylation; assay: IL-6 stimulated STAT3 Y705 phosphorylation in human whole blood; type: cell-based; conditions: Monocyte, monocytes
From the text: as §1

[8] = tested on: IL-2 (JAK1/3-mediated signaling) STAT5 Y694 phosphorylation; assay: IL-2 stimulated STAT5 Y694 phosphorylation in human whole blood; type: cell-based
From the text: as §1

Tyk2 = target: T2, Tyk2 (Homo sapiens, UniProt P29597); assay: DiscoveRx cellular platform, Tyk2; type: cell-based
T2 construct: DiscoveRx

JAK1 = JAK1 (Homo sapiens, UniProt P23458); assay: cell-based
vitiligo = assay: Study DMVT-502-9025, mouse model of vitiligo; type: in vivo
Description: The model mimics human vitiligo by inducing epidermal depigmentation with autoreactive CD8+ T-cell accumulation. A schematic of the model is depicted in FIG. 15. […] Ten mice were used in the study: three REX3 reporter mice for cytokines CXCL9 and CXCL10 and seven SCF (stem cell factor) mice. The vitiligo study timeline is depicted in FIG. 16. The following assessments were performed during the study: • Blinded scoring of ears, tail, nose, and ventral feet (0-5 scale) • Epidermal, dermal, spleen, and lymph node PMEL (premelanosome protein) cell count • Epidermal/dermal APC (antigen-presenting cell) count • Keratinocyte cytokine expression

[9] = 30 and 60 mg/kg oral, vs vehicle

JAK2, sequence (O60674 whole entry): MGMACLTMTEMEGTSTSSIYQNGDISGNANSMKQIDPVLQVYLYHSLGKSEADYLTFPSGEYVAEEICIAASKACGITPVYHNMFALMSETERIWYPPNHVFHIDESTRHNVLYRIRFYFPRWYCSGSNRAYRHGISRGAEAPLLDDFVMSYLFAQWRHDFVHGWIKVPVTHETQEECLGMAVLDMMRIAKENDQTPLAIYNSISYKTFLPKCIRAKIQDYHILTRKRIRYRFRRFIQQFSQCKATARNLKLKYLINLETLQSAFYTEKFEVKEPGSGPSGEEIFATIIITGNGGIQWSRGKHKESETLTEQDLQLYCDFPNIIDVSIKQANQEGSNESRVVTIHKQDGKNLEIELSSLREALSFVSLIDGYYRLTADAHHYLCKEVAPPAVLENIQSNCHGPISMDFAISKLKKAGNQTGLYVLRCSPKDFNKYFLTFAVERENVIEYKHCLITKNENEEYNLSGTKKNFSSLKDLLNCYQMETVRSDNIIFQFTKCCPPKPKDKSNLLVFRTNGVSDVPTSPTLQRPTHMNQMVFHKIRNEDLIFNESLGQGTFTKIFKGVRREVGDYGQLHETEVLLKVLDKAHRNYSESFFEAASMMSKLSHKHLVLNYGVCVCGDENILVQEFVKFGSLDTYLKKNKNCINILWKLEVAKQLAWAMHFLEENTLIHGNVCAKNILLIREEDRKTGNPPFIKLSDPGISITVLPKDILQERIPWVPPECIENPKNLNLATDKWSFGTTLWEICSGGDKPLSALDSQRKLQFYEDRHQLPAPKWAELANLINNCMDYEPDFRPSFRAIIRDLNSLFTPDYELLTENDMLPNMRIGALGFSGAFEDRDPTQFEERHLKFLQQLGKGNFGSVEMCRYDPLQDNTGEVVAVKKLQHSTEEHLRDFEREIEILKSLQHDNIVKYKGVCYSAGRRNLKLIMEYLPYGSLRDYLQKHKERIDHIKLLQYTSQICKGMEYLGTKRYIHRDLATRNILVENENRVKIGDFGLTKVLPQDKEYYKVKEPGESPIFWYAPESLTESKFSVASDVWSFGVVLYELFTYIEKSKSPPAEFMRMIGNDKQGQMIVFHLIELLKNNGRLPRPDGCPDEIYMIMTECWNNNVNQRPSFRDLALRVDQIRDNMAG
JAK1, sequence (P23458 whole entry): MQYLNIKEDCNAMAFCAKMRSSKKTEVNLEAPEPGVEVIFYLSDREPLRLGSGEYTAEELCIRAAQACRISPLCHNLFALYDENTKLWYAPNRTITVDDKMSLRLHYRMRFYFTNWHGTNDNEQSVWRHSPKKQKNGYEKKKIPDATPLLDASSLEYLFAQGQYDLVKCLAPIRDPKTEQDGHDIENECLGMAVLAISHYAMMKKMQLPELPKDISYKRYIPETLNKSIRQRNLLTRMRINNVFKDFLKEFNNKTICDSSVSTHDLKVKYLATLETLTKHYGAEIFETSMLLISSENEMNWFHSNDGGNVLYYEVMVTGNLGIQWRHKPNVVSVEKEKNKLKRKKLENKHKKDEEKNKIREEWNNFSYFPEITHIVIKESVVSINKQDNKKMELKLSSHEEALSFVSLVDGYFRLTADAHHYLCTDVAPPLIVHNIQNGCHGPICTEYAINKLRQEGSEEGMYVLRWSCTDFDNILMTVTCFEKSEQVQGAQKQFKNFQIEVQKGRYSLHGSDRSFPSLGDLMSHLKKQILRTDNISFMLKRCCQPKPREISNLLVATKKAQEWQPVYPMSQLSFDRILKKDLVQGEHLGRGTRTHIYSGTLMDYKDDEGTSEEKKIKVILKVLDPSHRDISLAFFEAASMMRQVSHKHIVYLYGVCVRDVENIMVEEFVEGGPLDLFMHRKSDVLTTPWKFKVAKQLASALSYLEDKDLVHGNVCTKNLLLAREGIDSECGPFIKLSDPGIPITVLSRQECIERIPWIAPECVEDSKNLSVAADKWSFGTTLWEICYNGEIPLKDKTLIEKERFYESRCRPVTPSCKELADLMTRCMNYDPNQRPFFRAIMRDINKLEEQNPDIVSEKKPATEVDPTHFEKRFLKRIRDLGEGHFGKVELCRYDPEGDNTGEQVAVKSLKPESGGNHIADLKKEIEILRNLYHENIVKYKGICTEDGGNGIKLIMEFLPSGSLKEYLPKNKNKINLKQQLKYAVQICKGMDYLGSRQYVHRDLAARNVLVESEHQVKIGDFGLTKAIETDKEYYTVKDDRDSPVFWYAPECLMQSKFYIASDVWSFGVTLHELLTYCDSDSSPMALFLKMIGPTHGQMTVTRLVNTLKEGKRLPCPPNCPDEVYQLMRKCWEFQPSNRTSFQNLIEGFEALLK
T2 sequence (P29597 whole entry): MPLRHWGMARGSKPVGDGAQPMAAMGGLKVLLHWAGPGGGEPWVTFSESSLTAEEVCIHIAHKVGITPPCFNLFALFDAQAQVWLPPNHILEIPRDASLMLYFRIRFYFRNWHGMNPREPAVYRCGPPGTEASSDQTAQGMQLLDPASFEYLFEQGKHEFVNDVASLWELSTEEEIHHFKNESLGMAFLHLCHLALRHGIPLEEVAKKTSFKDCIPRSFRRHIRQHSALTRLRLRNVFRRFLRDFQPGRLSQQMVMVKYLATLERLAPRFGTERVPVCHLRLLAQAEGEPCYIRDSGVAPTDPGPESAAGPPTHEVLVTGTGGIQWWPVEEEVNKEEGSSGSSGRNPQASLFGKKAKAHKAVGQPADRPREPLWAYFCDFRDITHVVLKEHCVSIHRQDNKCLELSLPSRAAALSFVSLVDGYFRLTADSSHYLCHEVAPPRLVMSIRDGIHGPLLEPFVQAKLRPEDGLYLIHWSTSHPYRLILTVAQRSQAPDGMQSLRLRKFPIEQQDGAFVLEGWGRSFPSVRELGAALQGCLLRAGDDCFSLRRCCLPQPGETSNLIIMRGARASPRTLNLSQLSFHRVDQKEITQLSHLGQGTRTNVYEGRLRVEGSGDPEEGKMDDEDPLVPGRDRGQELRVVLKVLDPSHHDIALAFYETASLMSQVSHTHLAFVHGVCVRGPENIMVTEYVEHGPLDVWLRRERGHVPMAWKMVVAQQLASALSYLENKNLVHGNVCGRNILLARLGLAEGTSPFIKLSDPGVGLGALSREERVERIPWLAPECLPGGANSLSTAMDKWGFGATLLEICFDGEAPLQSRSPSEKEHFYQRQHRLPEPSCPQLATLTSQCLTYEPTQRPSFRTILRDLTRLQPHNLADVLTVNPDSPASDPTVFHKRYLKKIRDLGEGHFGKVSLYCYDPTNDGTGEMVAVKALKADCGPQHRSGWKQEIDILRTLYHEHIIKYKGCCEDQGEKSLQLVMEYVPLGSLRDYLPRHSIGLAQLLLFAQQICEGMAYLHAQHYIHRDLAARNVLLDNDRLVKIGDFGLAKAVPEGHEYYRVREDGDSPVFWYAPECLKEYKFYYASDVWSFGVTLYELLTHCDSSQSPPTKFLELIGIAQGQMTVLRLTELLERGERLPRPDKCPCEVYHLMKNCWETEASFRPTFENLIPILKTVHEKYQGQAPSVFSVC

What does the source list for `CCS(=O)(=O)N1CCN(c2ccc(Nc3ncc(C(N)=O)c(NC4CC4)n3)cc2)CC1` [DMVT-502, Cerdulatinib]?
IC50 [1]: ~100 nM; IC50 (JAK2): 4860 nM; IC50 [2]: < 200 nM; Pro-inflammatory cytokine levels in skin ([3]; Day 15, topical treatment): limited suppression; Serum IgE levels ([3]; Study Day 15, topical therapy): trends towards reduction; IC50 [4]: ~4000 nM; IC50 ([5]; read-out: IC50, IL-4-mediated upregulation of CD23): 230 nM; IC50 ([5]; read-out: IC50, IL-4-mediated upregulation of CD25): 420 nM; IC50 (Syk): 1280 nM; IC50 ([6]; B-cell, CD19+ B cells): 920 nM; IC50 ([6]; CD4+ T cells): 580 nM; IC50 ([6]; Monocyte, CD14+ monocytes): 998 nM; IC50 ([6]; T-cell, CD8+ T cells): 330 nM; IC50 [7]: 260 nM; IC50 ([8]; CD4+ T cells): 300 nM; IC50 ([8]; T-cell, CD8+ T cells): 160 nM; IC50 (Tyk2): 1720 nM; IC50 (JAK1): 98 nM; CD3+, CD8− T-cell counts in the spleen (vitiligo; 60 mg/kg oral): significantly reduced; Host T-cell counts in blood (vitiligo; 60 mg/kg oral): significantly decreased; PMEL T-cell counts in dermis and blood (vitiligo; 60 mg/kg oral): significantly reduced; APCs in the dermal skin compartment and Langerhans cells in the epidermal skin compartment (vitiligo; 60 mg/kg oral, vs vehicle): significantly reduced; Vitiligo scores (vitiligo; 30 and 60 mg/kg once daily oral, 5 weeks, vs vehicle): significantly decreased; Host-derived total T-cell counts in the spleen (vitiligo; 30 and 60 mg/kg oral): significantly reduced; APC counts in lymph nodes and the spleen (vitiligo; [9]): significantly reduced; PMEL T-cell counts in the epidermis and dermis (vitiligo; [9]): significantly reduced; CXCL9 and CXCL10 expression in lymph node APCs (vitiligo; 30 or 60 mg/kg oral): Reduced; Lymph node or spleen PMEL T cells (vitiligo; 30 or 60 mg/kg oral): no significant differences; CXCL9, CXCL10, and dual expression in keratinocytes (vitiligo; SCF/REX3 mice, vs vehicle): trends towards reduced; Total keratinocyte counts (vitiligo; between treatment groups): No decrease

— patent US20200390689A1, “CERDULATINIB-CONTAINING TOPICAL SKIN PHARMACEUTICAL COMPOSITIONS AND USES THEREOF” (Dermavant Sciences GmbH, priority 2018, published 2020)
